Values quoted from earlier work, collected in US7087637B2, “Substituted indoles which are PARP inhibitors” (BASF AG, priority 2000, dated 2006).

Conditions: S. Cuzzocrea et al., Br. J. Pharmacol. 1997, 121, 1065–1074

For `NC(=O)c1cccc(N)c1` [3-aminobenzamide], the “effects in a model of circulatory shock” value is given as “protective effects”.
